Converted amounts (≈) assume the structure as drawn.
Tests used:
Assay type in all cases: cell-based
[1] = tested on: Moraxella catarrhalis (BCA); test: MIC, two-fold agar dilution (CLSI), clinical isolates
Method in brief: (§1)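 MIC values come from two-fold agar dilution run per CLSI antimicrobial susceptibility testing procedure.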

[2] = tested on: Streptococcus pneoumoniae (SPN); test: as above
Method in brief: as §1

[3] = tested on: methicillin-sensitive Staphylococcus epidermidis (MSSE); test: as above
Method in brief: as §1

[4] = tested on: Escherichia coli (including ESBLs, non-ESBLs); test: as above
Method in brief: as §1

[5] = tested on: methicillin-resistant Staphylococcus aureus (MRSA); test: as above
Method in brief: as §1

[6] = tested on: Enterococcus faecalis (EFA); test: as above
Method in brief: as §1

[7] = tested on: methicillin-resistant Staphylococcus epidermidis (MRSE); test: as above
Method in brief: as §1

[8] = tested on: methicillin-sensitive Staphylococcus aureus (MSSA); test: as above
Method in brief: as §1

[9] = tested on: Enterococcus faecium (EFM); test: as above
Method in brief: as §1

[10] = tested on: HCT-116 colorectal cancer cell line; test: CCK-8 proliferation inhibition; details: Homo sapiens, HCT-116, 72 h, concentration of 30 μM; 72 hours; CCK-8; read-out: HCT116 inhibition rate/%
Method in brief: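 Cells were plated overnight at 2000 cells/well, then compound in culture medium was added at a range of final concentrations. After 72 hours in a CO2 incubator, medium was replaced with 1:10 CCK-8 solution for the read-out.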

## O=CN(O)C[C@@H](CC1CCCC1)C(=O)N1CC2(CC2)C[C@H]1C(=O)Nc1ccncn1 [Example 27, (S)-5-((R)-3-cyclopentyl-2-((N-hydroxyformamido)methyl)propionyl)-N-(pyrimidin-4-yl)-5-spiro[2.4]heptane-6-carboxamide]
[1]; clinical isolate BCA 14-10
  Anti-bacterial activity (MIC), strain BCA 14-10: 0.5 µg/mL
[1]; strain BCA 14-1
  MIC (anti-bacterial activity): 2 µg/mL (≈ 4.81 µM)
[1]; strain BCA 14-4
  MIC (anti-bacterial activity): 2 µg/mL (≈ 4.81 µM)
[1]; strain BCA 14-5
  MIC (anti-bacterial activity): 0.25 µg/mL (≈ 0.602 µM)
[1]; strain BCA 14-6
  MIC (anti-bacterial activity): 0.125 µg/mL (≈ 0.301 µM)
[1]; strain BCA 14-7
  MIC (anti-bacterial activity): 0.25 µg/mL (≈ 0.602 µM)
[1]; strain BCA 14-8
  MIC (anti-bacterial activity): 0.5 µg/mL (≈ 1.2 µM)
[2]; strain SPN 16-2
  MIC (anti-bacterial activity): 0.25 µg/mL (≈ 0.602 µM)
[2]; strain SPN 16-4
  MIC (anti-bacterial activity): 2 µg/mL (≈ 4.81 µM)
[3]; strain MSSE 15-3
  MIC (anti-bacterial activity): 0.125 µg/mL (≈ 0.301 µM)
[3]; strain MSSE 15-4
  MIC (anti-bacterial activity): 0.125 µg/mL (≈ 0.301 µM)
[3]; strain MSSE 15-5
  MIC (anti-bacterial activity): 0.125 µg/mL (≈ 0.301 µM)
[3]; strain MSSE 15-6
  MIC (anti-bacterial activity): 0.125 µg/mL (≈ 0.301 µM)
[4]; strain ECO+ 15-1
  MIC (anti-bacterial activity): 16 µg/mL (≈ 38.5 µM)
[4]; strain ECO+ 15-2
  MIC (anti-bacterial activity): 32 µg/mL (≈ 77 µM)
[4]; strain ECO+ 15-3
  MIC (anti-bacterial activity): 32 µg/mL (≈ 77 µM)
[4]; strain ECO+ 15-4
  MIC (anti-bacterial activity): 32 µg/mL (≈ 77 µM)
[4]; strain ECO− 15-1
  MIC (anti-bacterial activity): 32 µg/mL (≈ 77 µM)
[4]; strain ECO− 15-2
  MIC (anti-bacterial activity): 32 µg/mL (≈ 77 µM)
[4]; strain ECO− 15-3
  MIC (anti-bacterial activity): 32 µg/mL (≈ 77 µM)
[4]; strain ECO− 15-4
  MIC (anti-bacterial activity): 32 µg/mL (≈ 77 µM)
[5]; strain MRSA 15-1
  MIC (anti-bacterial activity): 0.125 µg/mL (≈ 0.301 µM)
[5]; strain MRSA 15-2
  MIC (anti-bacterial activity): 0.125 µg/mL (≈ 0.301 µM)
[5]; strain MRSA 15-3
  MIC (anti-bacterial activity): 0.125 µg/mL (≈ 0.301 µM)
[5]; strain MRSA 15-4
  MIC (anti-bacterial activity): 0.125 µg/mL (≈ 0.301 µM)
[6]; strain EFA 15-1
  MIC (anti-bacterial activity): 2 µg/mL (≈ 4.81 µM)
[6]; strain EFA 15-2
  MIC (anti-bacterial activity): 2 µg/mL (≈ 4.81 µM)
[6]; strain EFA 15-3
  MIC (anti-bacterial activity): 2 µg/mL (≈ 4.81 µM)
[6]; strain EFA 15-4
  MIC (anti-bacterial activity): 2 µg/mL (≈ 4.81 µM)
[6]; strain EFA 15-5
  MIC (anti-bacterial activity): 2 µg/mL (≈ 4.81 µM)
[6]; strain EFA 15-6
  MIC (anti-bacterial activity): 2 µg/mL (≈ 4.81 µM)
[6]; strain EFA 15-9
  MIC (anti-bacterial activity): 2 µg/mL (≈ 4.81 µM)
[7]; strain MRSE 15-1
  MIC (anti-bacterial activity): 0.06 µg/mL (≈ 0.144 µM)
[7]; strain MRSE 15-2
  MIC (anti-bacterial activity): 0.125 µg/mL (≈ 0.301 µM)
[7]; strain MRSE 15-3
  MIC (anti-bacterial activity): 0.125 µg/mL (≈ 0.301 µM)
[7]; strain MRSE 15-7
  MIC (anti-bacterial activity): 0.125 µg/mL (≈ 0.301 µM)
[8]; strain MSSA 15-3
  MIC (anti-bacterial activity): 0.125 µg/mL (≈ 0.301 µM)
[8]; strain MSSA 15-4
  MIC (anti-bacterial activity): 0.125 µg/mL (≈ 0.301 µM)
[8]; strain MSSA 15-5
  MIC (anti-bacterial activity): 0.125 µg/mL (≈ 0.301 µM)
[8]; strain MSSA 15-6
  MIC (anti-bacterial activity): 0.125 µg/mL (≈ 0.301 µM)
[9]; strain EFM 15-1
  MIC (anti-bacterial activity): 0.25 µg/mL (≈ 0.602 µM)
[9]; strain EFM 15-2
  MIC (anti-bacterial activity): 1 µg/mL (≈ 2.41 µM)
[9]; strain EFM 15-3
  MIC (anti-bacterial activity): 0.25 µg/mL (≈ 0.602 µM)
[9]; strain EFM 15-4
  MIC (anti-bacterial activity): 0.5 µg/mL (≈ 1.2 µM)
[9]; strain EFM 15-5
  MIC (anti-bacterial activity): 0.25 µg/mL (≈ 0.602 µM)
[9]; strain EFM 15-6
  MIC (anti-bacterial activity): 0.5 µg/mL (≈ 1.2 µM)
[10]
  inhibition at 30 µM: 17%

## CCCC[C@H](CN(O)C=O)C(=O)N1CC2(CC2)C[C@H]1C(=O)Nc1ccc(N2CCOCC2)cc1 [Example 14]
[1]; strain BCA 14-1
  MIC (anti-bacterial activity): 4 µg/mL (≈ 8.46 µM)
[1]; strain BCA 14-4
  MIC (anti-bacterial activity): 2 µg/mL (≈ 4.23 µM)
[1]; strain BCA 14-5
  MIC (anti-bacterial activity): 2 µg/mL (≈ 4.23 µM)
[1]; strain BCA 14-6
  MIC (anti-bacterial activity): 2 µg/mL (≈ 4.23 µM)
[1]; strain BCA 14-7
  MIC (anti-bacterial activity): 1 µg/mL (≈ 2.12 µM)
[1]; strain BCA 14-8
  MIC (anti-bacterial activity): 2 µg/mL (≈ 4.23 µM)
[1]; strain BCA 14-10
  MIC (anti-bacterial activity): 0.5 µg/mL (≈ 1.06 µM)
[2]; strain SPN 16-2
  MIC (anti-bacterial activity): 8 µg/mL (≈ 16.9 µM)
[2]; strain SPN 16-4
  MIC (anti-bacterial activity): 0.5 µg/mL (≈ 1.06 µM)
[3]; strain MSSE 15-3
  MIC (anti-bacterial activity): 0.25 µg/mL (≈ 0.529 µM)
[3]; strain MSSE 15-4
  MIC (anti-bacterial activity): 0.25 µg/mL (≈ 0.529 µM)
[3]; strain MSSE 15-5
  MIC (anti-bacterial activity): 0.25 µg/mL (≈ 0.529 µM)
[3]; strain MSSE 15-6
  MIC (anti-bacterial activity): 0.125 µg/mL (≈ 0.265 µM)
[4]; strain ECO+ 15-1
  MIC (anti-bacterial activity): > 32 µg/mL
[4]; strain ECO+ 15-2
  MIC (anti-bacterial activity): > 32 µg/mL
[4]; strain ECO+ 15-3
  MIC (anti-bacterial activity): > 32 µg/mL
[4]; strain ECO+ 15-4
  MIC (anti-bacterial activity): > 32 µg/mL
[4]; strain ECO− 15-1
  MIC (anti-bacterial activity): > 32 µg/mL
[4]; strain ECO− 15-2
  MIC (anti-bacterial activity): > 32 µg/mL
[4]; strain ECO− 15-3
  MIC (anti-bacterial activity): > 32 µg/mL
[4]; strain ECO− 15-4
  MIC (anti-bacterial activity): > 32 µg/mL
[5]; strain MRSA 15-1
  MIC (anti-bacterial activity): 1 µg/mL (≈ 2.12 µM)
[5]; strain MRSA 15-2
  MIC (anti-bacterial activity): 1 µg/mL (≈ 2.12 µM)
[5]; strain MRSA 15-3
  MIC (anti-bacterial activity): 1 µg/mL (≈ 2.12 µM)
[5]; strain MRSA 15-4
  MIC (anti-bacterial activity): 1 µg/mL (≈ 2.12 µM)
[6]; strain EFA 15-1
  MIC (anti-bacterial activity): 8 µg/mL (≈ 16.9 µM)
[6]; strain EFA 15-2
  MIC (anti-bacterial activity): 8 µg/mL (≈ 16.9 µM)
[6]; strain EFA 15-3
  MIC (anti-bacterial activity): 2 µg/mL (≈ 4.23 µM)
[6]; strain EFA 15-4
  MIC (anti-bacterial activity): 8 µg/mL (≈ 16.9 µM)
[6]; strain EFA 15-5
  MIC (anti-bacterial activity): 8 µg/mL (≈ 16.9 µM)
[6]; strain EFA 15-6
  MIC (anti-bacterial activity): 8 µg/mL (≈ 16.9 µM)
[6]; strain EFA 15-9
  MIC (anti-bacterial activity): 8 µg/mL (≈ 16.9 µM)
[7]; strain MRSE 15-1
  MIC (anti-bacterial activity): 0.25 µg/mL (≈ 0.529 µM)
[7]; strain MRSE 15-2
  MIC (anti-bacterial activity): 0.25 µg/mL (≈ 0.529 µM)
[7]; strain MRSE 15-3
  MIC (anti-bacterial activity): 1 µg/mL (≈ 2.12 µM)
[7]; strain MRSE 15-7
  MIC (anti-bacterial activity): 1 µg/mL (≈ 2.12 µM)
[8]; strain MSSA 15-3
  MIC (anti-bacterial activity): 1 µg/mL (≈ 2.12 µM)
[8]; strain MSSA 15-4
  MIC (anti-bacterial activity): 1 µg/mL (≈ 2.12 µM)
[8]; strain MSSA 15-5
  MIC (anti-bacterial activity): 0.25 µg/mL (≈ 0.529 µM)
[8]; strain MSSA 15-6
  MIC (anti-bacterial activity): 1 µg/mL (≈ 2.12 µM)
[9]; strain EFM 15-1
  MIC (anti-bacterial activity): 1 µg/mL (≈ 2.12 µM)
[9]; strain EFM 15-2
  MIC (anti-bacterial activity): 2 µg/mL (≈ 4.23 µM)
[9]; strain EFM 15-3
  MIC (anti-bacterial activity): 0.5 µg/mL (≈ 1.06 µM)
[9]; strain EFM 15-4
  MIC (anti-bacterial activity): 4 µg/mL (≈ 8.46 µM)
[9]; strain EFM 15-5
  MIC (anti-bacterial activity): 0.5 µg/mL (≈ 1.06 µM)
[9]; strain EFM 15-6
  MIC (anti-bacterial activity): 2 µg/mL (≈ 4.23 µM)
[10]
  inhibition at 30 µM: 21%

— patent publication US10738028B2, “Spiro three-membered ring, spiro five-membered ring peptide deformylase inhibitor and use thereof in antibacteria and anti-tumor” (priority 2016, dated 2020)
